Where a name gives a salt, the structure may show the parent alone. Read-outs that look alike come from different tables or passages of the source.
Columns and labels:
B16 MDR = assay: Proliferation test, B16 MDR cells; type: cell-based, murine; conditions: Mus musculus; linear regression of survival percentage
Method: (§1) Cell lines: Human prostate carcinoma (PC-3), human colon carcinoma (HT-29), murine melanoma (B-16) and its drug resistant subclone (B-16 MDR), mouse fibroblasts (3T3), myeloid leukemia (HL 60) and its drug resistant subclone (HL 60 MX2), endometrium cell line (MES SA) and its drug resistant subclone (MES DX5), jurkat T lymphoma and monocyte leukemia (U-937), were used in this study.
(§2) Proliferation of cancer and normal cells: Proliferation was measured by neutral red assay or by a fluorometric assay quantitating DNA content. In the neutral red assay, the neutral red is absorbed by lysosomes, thus causing coloring of living cells. Quantitative analysis is performed by colorimetric assay (ELISA reader at 550 nm). In the fluorometric assay, alamar blue is used as a redox indicator. Alamar blue fluorescence was measured at an excitation wavelength of 544 nm and an emission wavelength of […] (FLUOstar BMG Lab Technologies, Offenburg, Germany).
(§3) The cells were sub-cultured and the tested compounds were added thereto in increasing concentrations. The IC50 values were determined by linear regression of the survival percentage of the cells.

rat myocytes = tested on: rat myocytes
Method: Toxicity: In vitro toxicity was determined by measuring the effect of the tested compounds (either known neuroleptics or the chemical conjugates of the invention) on primary cultures of neurons and whole brain neuron and glia cells obtained from the brains of neonatal mice. In vitro toxicity of perphenazine and its chemical conjugate AN 168 was also determined with rat myocytes. Acute toxicity in vivo as determined by the LD50 was evaluated on 2 months old ICR mice following the administration of a single intraperitoneal bolus-dose of drug.

PC-3 = assay: Proliferation test, PC-3 cells; type: cell-based; conditions: Homo sapiens, linear regression of survival percentage
Method: as §1, §2, §3

rats [1] = conditions: rat, in vivo
Method: Animals: Young adult male rats (150-230 grams) were purchased from Harlan (Israel). Animals were divided 2-5/cage and housed in controlled conditions in the animal room for a week prior to the experiments. The experiments were conducted with naive animals, in a double blind procedure. In each experiment various treatment groups (about 5-10 animals each) were tested.
Catalepsy in rats: The manifestation of the extrapyramidal adverse effects induced by typical neuroleptics was evaluated by the appearance of stereotypic cataleptic behavior in rats following the neuroleptic treatment. Catalepsy was determined by two methods: (i) by measuring the time it took an animal hanging on a cage wall to move its hind legs and reach a flat surface (the “wall” test); and (ii) rats were placed on a flat surface with their anterior limbs leaning on a flat bar (5.5 cm height) resembling a piano playing position. Catalepsy was determined by the time it took an animal to descend and reach the flat surface (the “piano” test). The maximum time of follow up was 2 minutes and these measurements were performed hourly and individually for each animal. These tests provide an assessment of central dopamine (DA) blocking activity and are acceptable criteria for extrapyramidal symptoms induced by anti-psychotic drugs [10].
A control animals group was treated with the vehicle (lactic acid) only.

rats [2] = assay: D-Amphetamine-induced hyperactivity in rats; type: in vivo, rat; conditions: i.p., amphetamine 2.5 mg/kg i.p.
Method: D-Amphetamine-induced hyperactivity in rats: The efficacy of the chemical conjugates of the present invention was studied using the D-amphetamine-induced hyperactivity and motility model, which is known as one of the most established animal models for schizophrenia.
Naïve Wistar male rats were placed in individual boxes. In each experiment 4 rats were studied. Perphenazine or equimolar doses of its chemical conjugate AN-168 were administered intraperitoneally (ip) to the rats 30 minutes prior to intraperitoneal administration of amphetamine (2.5 mg/kg), or 90 minutes prior to oral administration of amphetamine (2.5 mg/kg). The animals locomotor activity was assessed using two parameters: climbing attempts of the animal on the barrel walls (as big movements) and head movement of the animal (as small movements). Assessment was recorded every 15 minutes for two hours. Each animal was tested at each time point for 120 seconds.
The climbing behavior of the rats in each group was measured as described hereinabove.

Jurkat T lymphoma cells = assay: Proliferation / viability test, Jurkat T lymphoma cells; type: cell-based; conditions: Homo sapiens
Method: as §1, §2, §3

HL 60 = assay: Proliferation test, HL 60 cells; type: cell-based; conditions: Homo sapiens, linear regression of survival percentage
Method: as §1, §2, §3

MES SA DX5 (MDR) = assay: Proliferation test, MES SA DX5 (MDR) cells; type: cell-based; conditions: Homo sapiens, linear regression of survival percentage
Method: as §1, §2, §3

MES SA = assay: Proliferation test, MES SA cells; type: cell-based; conditions: Homo sapiens, linear regression of survival percentage
Method: as §1, §2, §3

HT-29 = assay: Proliferation test, HT-29 cells; type: cell-based; conditions: Homo sapiens, linear regression of survival percentage
Method: as §1, §2, §3

**Q.** For `NCCCC(=O)OCCN1CCN(CCCN2c3ccccc3Sc3ccc(Cl)cc32)CC1` [AN-168, Perphenazine 4-aminobutyrate Trihydrochloride], which IC50 (B16 MDR) is on record?
**A.** 23 ± 16 µM

**Q.** What about the “decrease in cells viability” value (rat myocytes) of the same compound?
**A.** did not cause any decrease in cells viability at all concentrations

**Q.** And the IC50 (PC-3)?
**A.** 45.5 µM

**Q.** What about the “time course of catalepsy” value (rats [1]; male, ip) of the same compound?
**A.** no catalepsy through the entire 7 hours period

**Q.** And the “time course of catalepsy, conjugate versus mixture” value (rats [1]; male, ip, 120 min)?
**A.** abolished after 120 minutes

**Q.** And the “average of total catalepsy as percentage of the perphenazine-induced catalepsy” value (rats [1])?
**A.** reduced the induced catalepsy to almost a zero value

**Q.** And the “total catalepsy, conjugate versus mixture” value (rats [1]; ip)?
**A.** very low catalepsy

**Q.** And the “induced catalepsy, SAR studies” value (rats [1]; ip, 5 mg/kg)?
**A.** almost maximal reduction of induced catalepsy

**Q.** What about the total catalepsy (rats [1]; ip, 5 mg/kg) of the same compound?
**A.** did not induce catalepsy at all

**Q.** What about the total catalepsy (rats [1]; po) of the same compound?
**A.** cataleptic symptoms were almost abolished

**Q.** And the D-amphetamine-induced climbing behavior (rats [2]; AN-168 0.5 or 1.5 mg/kg, two hours (FIGS. 22, 23))?
**A.** completely antagonized the climbing behavior induced by amphetamine even at low doses

**Q.** And the “D-amphetamine-induced head movements and other small body movement” value (rats [2]; two hours (FIGS. 24, 25))?
**A.** inferior to that of perphenazine

**Q.** What about the IC50 (Jurkat T lymphoma cells; alamar blue method (FIG. 15), read-out: IC50, Jurkat T lymphoma cells viability) of the same compound?
**A.** 19 µM

**Q.** And the IC50 (Jurkat T lymphoma cells; linear regression of survival percentage, read-out: IC50, JURKAT)?
**A.** 11.3 µM

**Q.** And the IC50 (HL 60)?
**A.** 15.1 µM

**Q.** What about the IC50 (MES SA DX5 (MDR)) of the same compound?
**A.** 17.2 µM

**Q.** And the IC50 (MES SA)?
**A.** 18.2 µM

**Q.** What about the IC50 (HT-29) of the same compound?
**A.** 23.1 ± 9 µM
